How the values were obtained:
Experiment in all cases: relative viability (nuclei count vs DMSO), 5 days (fraction); higher = more cells survive
[1] = compound: C[C@@]1(C(=O)Nc2ccc(F)nc2)CCCN1c1nc(Nc2cc(C3CC3)n[nH]2)c2cccn2n1 + Cc1cc(Nc2cc(N3CCN(C)CC3)nc(Sc3ccc(NC(=O)C4CC4)cc3)n2)n[nH]1 [Tozasertib] (partner 0.1 µM)
Outline: (§1)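 For relative viability, nuclei counts in treated wells were divided by those in vehicle wells. Lung cancer cell lines had been pin-tool dosed in 1536-well plates the day after seeding and cultured for 5 days, then fixed and stained in one step (final 0.05% Triton X-100, 1% formaldehyde, 1 ug/ml Hoechst) and imaged at 4×. Doses were one drug alone or a fixed anchor-drug dose plus five library-drug doses (not always all listed) in √10 steps, and values are duplicate-plate medians.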

[2] = compound: C[C@@]1(C(=O)Nc2ccc(F)nc2)CCCN1c1nc(Nc2cc(C3CC3)n[nH]2)c2cccn2n1 + O=C(c1cc(Cc2n[nH]c(=O)c3ccccc23)ccc1F)N1CCN(C(=O)C2CC2)CC1 [Olaparib] (partner 8 µM)
Outline: as §1

Motesanib + Foretinib = compound: CC1(C)CNc2cc(NC(=O)c3cccnc3NCc3ccncc3)ccc21 [Motesanib] + COc1cc2c(Oc3ccc(NC(=O)C4(C(=O)Nc5ccc(F)cc5)CC4)cc3F)ccnc2cc1OCCCN1CCOCC1 [Foretinib] (partner 0.25 µM)
Outline: as §1

Motesanib + Pictilisib = compound: CC1(C)CNc2cc(NC(=O)c3cccnc3NCc3ccncc3)ccc21 [Motesanib] + CS(=O)(=O)N1CCN(Cc2cc3nc(-c4cccc5[nH]ncc45)nc(N4CCOCC4)c3s2)CC1 [Pictilisib] (partner 1 µM)
Outline: as §1

Cell Line	relative viability ([1]; first compound 0.04 µM)	relative viability ([1]; first compound 1.265 µM)	relative viability ([2]; first compound 0.04 µM)	relative viability ([2]; first compound 0.1265 µM)	relative viability ([2]; first compound 0.4 µM)	relative viability ([2]; first compound 1.265 µM)	relative viability (Motesanib + Foretinib; first compound 0.01 µM)	relative viability (Motesanib + Foretinib; first compound 0.03162 µM)	relative viability (Motesanib + Foretinib; first compound 0.1 µM)	relative viability (Motesanib + Foretinib; first compound 0.3162 µM)	relative viability (Motesanib + Foretinib; first compound 1 µM)	relative viability (Motesanib + Pictilisib; first compound 0.01 µM)	relative viability (Motesanib + Pictilisib; first compound 0.03162 µM)	relative viability (Motesanib + Pictilisib; first compound 0.1 µM)	relative viability (Motesanib + Pictilisib; first compound 0.3162 µM)	relative viability (Motesanib + Pictilisib; first compound 1 µM)	relative viability ([1]; first compound 0.1265 µM)	relative viability ([1]; first compound 0.4 µM)
NCI-H1648	0.449	0.336	0.446	0.746	0.422	0.7	–	–	–	–	–	–	–	–	–	–	–	–
SK-MES-1	0.979	0.207	0.718	0.702	0.557	0.373	0.949	0.963	0.982	0.945	0.86	0.392	0.405	0.403	0.381	0.339	0.968	0.8
HCC-366	0.677	0.637	0.364	0.256	0.254	0.215	0.955	0.932	0.952	0.883	1.02	0.145	0.149	0.139	0.139	0.137	0.102	0.0503
201T	0.827	0.863	0.755	0.725	0.729	0.9	1.09	1.1	0.997	1.13	1.1	0.671	0.688	0.68	0.679	0.71	0.709	0.431
HCC-827	0.443	0.42	0.663	0.769	0.55	0.716	0.963	1.09	1.02	1.08	1.03	1.12	1.13	0.866	1.01	1.04	0.491	0.373
NCI-H647	0.543	0.123	0.607	0.487	0.368	0.505	1.21	1.14	1.21	1.25	1.14	–	0.394	0.408	0.333	0.442	0.217	0.159
NCI-H2023	0.337	0.118	0.456	0.422	0.333	0.122	0.849	0.838	0.837	0.911	0.927	0.234	0.226	0.276	0.239	0.238	0.31	0.174
NCI-H520	0.48	0.423	0.334	0.33	0.298	0.291	0.857	0.79	0.922	0.851	0.948	0.269	0.267	0.345	0.284	0.207	–	0.442
RERF-LC-KJ	0.544	0.236	0.892	0.858	0.737	0.345	0.876	0.866	0.848	0.864	0.892	0.507	0.63	0.621	0.613	0.61	0.506	0.33
A-427	0.234	0.198	0.666	0.663	0.603	0.529	1.04	1.05	1.06	1.16	1.23	0.43	0.684	0.495	0.681	0.789	0.192	0.173
NCI-H441	0.496	0.369	0.373	0.368	0.345	0.332	0.889	0.922	1.13	1	1.03	0.414	0.524	0.518	0.441	0.506	0.403	0.349
NCI-H1703	–	–	0.402	0.428	0.421	0.357	0.349	0.318	0.325	0.395	0.355	0.21	0.219	0.195	0.215	0.214	–	–
NCI-H1792	–	–	0.194	0.175	0.0767	0.161	–	–	–	–	–	0.296	0.231	0.294	0.297	0.309	–	–
Calu-6	–	–	0.612	0.644	0.543	0.384	0.953	0.921	0.851	0.884	0.826	0.878	0.727	0.944	0.867	0.84	–	–
SK-LU-1	0.282	0.259	0.414	0.361	0.396	0.403	0.941	0.831	0.846	0.841	0.906	0.494	0.481	0.553	0.628	0.663	0.318	0.233
PC-3 [JPC-3]	0.915	0.887	1.23	0.798	1.04	1.1	1.01	1.06	1.06	1.03	1.01	0.774	0.858	0.733	0.853	0.706	0.882	0.843
EMC-BAC-2	0.25	0.201	0.406	0.368	0.312	0.334	1.01	1.06	1.1	1.05	1.03	0.582	0.564	0.537	0.542	0.6	0.277	0.215
LK-2	0.178	0.175	0.38	0.287	0.29	0.35	1.21	1.08	–	1.27	1.31	0.576	0.513	0.555	0.621	0.537	0.169	0.187
NCI-H2126	0.677	0.337	0.67	0.643	0.575	0.76	1.13	1.12	1.17	1.31	1.11	0.531	0.539	0.476	0.553	0.508	0.366	0.441

Source: the supplement of paper PMC10307832
